The source made the active and inactive calls. The rule behind the calls is not given here.
target: Microphthalmia-associated transcription factor (Homo sapiens) (UniProt O75030); assay: MITF inhibitors by FRET titration, dose response, biochemical, high throughput (AID 1259375); conditions: FRET biochemical assay, MITF inhibition;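 note: FRET between CFP-tagged and YFP-tagged MITF protein partners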
Sequence (O75030 whole entry, looked up): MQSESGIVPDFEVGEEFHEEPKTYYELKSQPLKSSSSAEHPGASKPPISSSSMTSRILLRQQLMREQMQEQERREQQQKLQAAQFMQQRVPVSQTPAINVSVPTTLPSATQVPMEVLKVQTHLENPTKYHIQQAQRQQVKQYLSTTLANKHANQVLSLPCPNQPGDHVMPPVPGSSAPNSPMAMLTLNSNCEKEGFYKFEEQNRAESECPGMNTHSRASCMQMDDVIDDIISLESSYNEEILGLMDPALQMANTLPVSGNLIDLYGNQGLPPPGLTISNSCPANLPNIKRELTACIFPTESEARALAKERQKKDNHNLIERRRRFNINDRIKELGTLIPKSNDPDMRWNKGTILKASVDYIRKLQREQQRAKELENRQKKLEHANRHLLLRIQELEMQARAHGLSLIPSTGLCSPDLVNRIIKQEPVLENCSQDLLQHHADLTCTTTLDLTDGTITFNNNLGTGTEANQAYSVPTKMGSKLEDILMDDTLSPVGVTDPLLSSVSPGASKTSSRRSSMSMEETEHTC

Structure (SMILES) | IC50
COc1ccc(C[C@@H]2NC(=O)[C@H]3CN(C(=O)NC4CCCCC4)CCN3C2=O)cc1 | > 6.48 µM (inactive)
CCCCCCCCCCCCCCCC(=O)OC[C@H](O)[C@H]1OC(=O)C(=O)C1O (some centres undefined) | > 6.48 µM (inactive)
N#Cc1c(-c2ccco2)cc(-c2ccco2)nc1N | > 6.48 µM (inactive)
Clc1ccc2c(c1)CC(c1nc(Nc3cncnc3)c3ccccc3n1)CO2 (centres undefined) | > 6.48 µM (inactive)
CCOC(=O)C1C2NC(=S)N(c3cccc(Cl)c3)C1(C)Oc1c(OC)cccc12 (centres undefined) | > 5.09 µM (inactive)
O=C1O[C@H](C(O)CO)C(O)=C1O (some centres undefined) | > 6.48 µM (inactive)
O=C(O)CCCNC(=O)/C=C/c1ccco1 | > 6.48 µM (inactive)
Cc1[nH][nH]c(=O)c1C(c1ccc([N+](=O)[O-])o1)c1c(C)[nH][nH]c1=O | > 6.48 µM (inactive)
N#CC1=C(N)n2c(s/c(=C\c3ccco3)c2=O)=C(C#N)C1c1ccco1 (centres undefined) | > 6.53 µM (inactive)
O=C(OC1CCCC1=O)c1ccc(N2CCCC2=O)cc1 (centres undefined) | > 7.22 µM (inactive)
C[C@@H]1NC(=O)[C@H]2CN(C(=O)NC3CCCCC3)CCN2C1=O | > 6.48 µM (inactive)
O=C(OC1CCCC1=O)c1ccc(S(=O)(=O)N2CCCCC2)cc1 (centres undefined) | > 6.64 µM (inactive)
CN1CCN(C(=O)c2ccc(-c3nc(Nc4ccccc4)c4ncn(C5CCCCC5)c4n3)cc2)CC1 | > 7.63 µM (inactive)
c1ccc2c(c1)ncn2CC1CCN(Cc2cn3ccccc3n2)CC1 | > 6.48 µM (inactive)
CCn1ccnc1CN1CCN(Cc2cccc(OC)c2)C(CCO)C1 (centres undefined) | > 6.48 µM (inactive)
CC(C)C[C@H]1C(=O)N2CCN(C(=O)NC3CCCCC3)C[C@@H]2C(=O)N1C | > 6.48 µM (inactive)
NC1(C(Cl)(Cl)Cl)Oc2ccccc2O1 | > 6.48 µM (inactive)
C=CC1=C(C)C2=Cc3c(C=C)c(C)c4[n]3[Sn+2][n]3c(c(C)c(CCC(=O)O)c3=CC3=NC(=C4)C(C)=C3CCC(=O)O)=CC1=N2 | > 6.48 µM (inactive)
CC(C)(C)c1ccc(OCCn2cncn2)c(Cl)c1 | > 6.48 µM (inactive)
COc1cc(OC)c(CN2CCCC(O)C2)cc1Br (centres undefined) | > 6.48 µM (inactive)
CN(C)c1cc(NC(=O)CNC(C)(C)C)c(O)c2c1C[C@H]1C[C@H]3[C@@H](N(C)C)C(=O)C(C(N)=O)=C(O)[C@@]3(O)C(=O)C1=C2O | > 6.48 µM (inactive)
O=C(NCc1ccccc1)N1CCN2C(=O)[C@@H]3CCCN3C(=O)[C@H]2C1 | > 6.48 µM (inactive)
Cn1cc(-c2nc(Nc3ccc(-n4cnc(N5CCOCC5)n4)cc3)ncc2Br)cn1 | > 6.48 µM (inactive)
COc1cccc(COC(=O)Nc2ccc(-c3cn[nH]c3)cc2N(C)CCN(C)C)c1 | > 6.48 µM (inactive)
CN(C)CCOCCOc1ccccc1-c1ccccc1 | > 6.48 µM (inactive)
Cc1ccc(N2C(=O)c3ccccc3NC2c2cccc([N+](=O)[O-])c2)cc1 (centres undefined) | > 5.15 µM (inactive)
O=C(NC1CCCCC1)N1CCN2C(=O)[C@H]3CCCN3C(=O)[C@H]2C1 | > 6.48 µM (inactive)

Structure (SMILES) | IC50
Cc1cccc(N2CCN(C(=O)/C=C\C(=O)O)CC2)c1C | > 6.48 µM (inactive)
O=C(C1CCC(Nc2nccc(-c3ccc4nc(C5CC5)[nH]c(=O)c4c3)n2)CC1)N1CCCC1 (centres undefined) | > 6.48 µM (inactive)
N#C/C(=C(/O)COC(=O)c1cc2c(s1)CCC2)c1nc2ccccc2[nH]1 | > 7.1 µM (inactive)
Cc1cc(NC(=O)C2CCN(C(=O)c3ccc(-n4cccc4)cc3)CC2)no1 | > 6.48 µM (inactive)
Cc1cc(CSC(=N)N)c(O)c(C)n1 | > 6.48 µM (inactive)
O=c1cc(/C=C/c2ccc(O)cc2)nc2nn[nH]n12 | > 6.48 µM (inactive)
O=C1NC(=O)/C(=C\c2ccc(O)cc2O)S1 | > 6.48 µM (inactive)
O=C1N[C@@H](CC2CCCCC2)C(=O)N2CCN(C(=O)Nc3ccccc3)C[C@H]12 | > 6.48 µM (inactive)
Cn1c(SCc2cc(=O)n3c(n2)sc2ccccc23)nnc1C(F)(F)F | > 7.18 µM (inactive)
CNC(=O)COc1cc(-c2cn[nH]c2)ccc1NC(=O)C1COc2ccc(OC)cc2C1 (centres undefined) | > 6.48 µM (inactive)
COCCCNC(=O)/C(C#N)=C/c1ccc(OCC(=O)O)c(OC)c1 | > 6.48 µM (inactive)
CCC(C)c1ccccc1OCCNCCN(C)C (centres undefined) | > 6.48 µM (inactive)
O=C(NC1CCCCC1)N1CCN2C(=O)[C@@H]3CCCN3C(=O)[C@H]2C1 | > 6.48 µM (inactive)
COc1c(O)cc(O)cc1O | > 6.48 µM (inactive)
CCN(CC)c1ccc(C(c2c(C)[nH][nH]c2=O)c2c(C)[nH][nH]c2=O)cc1 | 2.94 µM
O=S(=O)(c1ccccc1C(F)(F)F)N1CCC(c2nc3ccccc3[nH]2)CC1 | > 6.48 µM (inactive)
COc1cc(N2CCOCC2)ccc1Nc1cc(NC(C)(C)c2ccccc2)c(C(F)(F)F)cn1 | > 6.48 µM (inactive)
COc1ccc2c(c1)CC(c1nc(Nc3ccc4cnccc4c3)c3ccccc3n1)CO2 (centres undefined) | > 6.48 µM (inactive)
CCOC(=O)C1CCCN(Cc2cccc(Br)c2)C1 (centres undefined) | > 6.48 µM (inactive)
CCN1CCN(CCOCCOc2ccc(F)cc2)CC1 | > 6.48 µM (inactive)
COc1cc(N2CCOCC2)ccc1Nc1cc(Nc2ccccc2-n2cccn2)c(C(F)(F)F)cn1 | > 6.48 µM (inactive)
O=C(Cn1ncn2cccc2c1=O)N1CCc2ccccc2C1 | > 6.48 µM (inactive)
CN(C)/C=C/C=C/C(=O)C1CCC/C(=C\C=C\N(C)C)C1=O (centres undefined) | > 6.48 µM (inactive)
COc1ccc(OC)c(NC(=O)c2cc3ccc(O)cc3oc2=Nc2ccc(C(=O)O)cc2)c1 | > 5.54 µM (inactive)
CCC(C)NCCOc1cccc(Br)c1 (centres undefined) | > 6.48 µM (inactive)
NC(=O)c1ccc(N=Cc2cc3c(cc2[N+](=O)[O-])OCO3)cc1 | 4.37 µM

Other lines, results leading:

IC50 | Structure (SMILES)
> 6.48 µM (inactive) | COc1ccc(CCNC(=O)CN2CCN(Cc3nc(-c4ccco4)cs3)CC2)cc1OC
> 7.53 µM (inactive) | O=C(c1ccc(=O)oc1)N1CCc2ccccc21
> 6.6 µM (inactive) | O=C(COC(=O)/C=C/c1ccco1)NCc1ccco1
> 6.48 µM (inactive) | O=S(=O)(O)c1ccc(N/N=C2\CCc3ccccc32)cc1
> 6.55 µM (inactive) | O=C(NCC(c1cccs1)S(=O)(=O)c1ccc(Cl)cc1)c1ccco1 (centres undefined)
> 6.63 µM (inactive) | O=C(/C=C/c1ccc(-c2cccc(C(F)(F)F)c2)o1)c1ccco1
> 6.48 µM (inactive) | C[C@@H](O)[C@@H]1NC(=O)[C@H]2CN(C(=O)NCc3ccccc3)CCN2C1=O
> 6.48 µM (inactive) | COc1ccc(C[C@@H]2NC(=O)[C@H]3CN(C(=O)NCc4ccccc4)CCN3C2=O)cc1
> 6.48 µM (inactive) | Cc1ccc(-c2nnc3s/c(=C\c4ccco4)c(=O)n23)cc1
> 6.48 µM (inactive) | O=C(/C=C/c1ccco1)ON1C(=O)c2ccccc2C1=O
> 6.48 µM (inactive) | CN1CC[C@H](Oc2cc(-c3cn[nH]c3)ccc2NC(=O)OCc2ccccc2)C1
> 6.48 µM (inactive) | Cc1ccc(COc2ccc(/C=N/N=C3\NC(=O)C(CC(=O)O)S3)cc2)cc1 (centres undefined)
1.8 µM | O=C(NCCO)c1ccc2nc(-c3ccco3)c(-c3ccco3)nc2c1
3.33 µM | O=C(/C=C/c1ccco1)NC(=S)Nc1cc(C(=O)O)ccc1Cl
> 7.59 µM (inactive) | O=C(O)c1cc(-c2ccco2)nc2ccccc12
> 6.48 µM (inactive) | CN(c1cccc(NS(=O)(=O)c2ccc([N+](=O)[O-])cc2)c1)S(C)(=O)=O
> 6.48 µM (inactive) | CCc1ccc(NC(=O)CS(=O)CC(=O)NCCCc2ccccc2)cc1 (centres undefined)
3.78 µM | Cc1c(NC(=S)NC(=O)/C=C/c2ccco2)cccc1C(=O)O
> 6.48 µM (inactive) | Cc1cncc2c(S(=O)(=O)N3CC[C@@H](NC(=O)C(O)c4ccc(F)cc4F)C3)cccc12 (some centres undefined)
> 8.06 µM (inactive) | O=C(NCCO)c1cccc(-c2cccs2)c1
> 6.77 µM (inactive) | O=C(COc1ccccc1C(=O)OC1CCCC1=O)Nc1cccc(C(F)(F)F)c1 (centres undefined)

IC50 | Structure (SMILES)
> 6.48 µM (inactive) | O=C(CCc1ccco1)Nc1ccc(-c2cn3c4c(nnc3n2)CCCC4)cc1
> 6.48 µM (inactive) | O=[N+]([O-])c1ccc(N/N=C/c2ccco2)c(S(=O)(=O)N2CCOCC2)c1
> 6.48 µM (inactive) | O=C(/C=C/c1ccco1)NC(=S)Nc1ccc(Cl)c(C(=O)O)c1
> 5.48 µM (inactive) | O=C(c1ccc([N+](=O)[O-])cc1)N1CCN(Cc2cccc3ccccc23)CC1
> 6.93 µM (inactive) | O=C(NCc1cccnc1)c1ccnc(-c2cccs2)c1
> 6.48 µM (inactive) | O=C1N[C@@H](COCc2ccccc2)C(=O)N2CCN(C(=O)NCc3ccccc3)C[C@H]12
> 6.48 µM (inactive) | Cc1ccc(C)n1C(Cc1c[nH]c2ccccc12)C(=O)O (centres undefined)
> 6.48 µM (inactive) | NC(=O)/C(=C\c1cccc([N+](=O)[O-])c1)NC(=O)c1ccc(Br)cc1
> 6.94 µM (inactive) | C=CCNC(=O)COC(=O)c1cc(-c2ccco2)nc2ccccc12
> 6.48 µM (inactive) | O=Cc1cccn1-c1ccc(C(=O)O)cc1
> 6.31 µM (inactive) | O=C(O)c1cccc2c1C(=O)N(c1ccccc1)C2
> 6.48 µM (inactive) | C[C@@H](OCc1ccccc1)[C@@H]1NC(=O)[C@H]2CN(C(=O)Nc3cccc(F)c3)CCN2C1=O
> 6.48 µM (inactive) | O=C(Nc1cc(S(=O)(=O)O)cc2cc(S(=O)(=O)O)cc(O)c12)c1ccccc1
> 6.58 µM (inactive) | O=C(OCCCC(=O)N1CCOCC1)c1cc(-c2ccco2)nc2ccccc12
> 6.48 µM (inactive) | Cc1ccc(C(=O)Nc2ccc([N+](=O)[O-])cn2)o1
> 6.48 µM (inactive) | N#C/C(=C\c1ccc(-c2ccccc2C(=O)O)o1)C(=O)NCc1ccco1
> 6.48 µM (inactive) | Cc1cc(C)nc(NS(=O)(=O)c2ccc(N3C(=O)C=CC3=O)cc2)n1
> 6.48 µM (inactive) | O=C1N[C@@H](CSCc2ccccc2)C(=O)N2CCN(C(=O)NCc3ccccc3)C[C@H]12
> 6.48 µM (inactive) | COc1ccc2c(c1)CC(C(=O)Nc1ccc(-c3cn[nH]c3)cc1OCc1ccccc1)CO2 (centres undefined)
> 6.48 µM (inactive) | O=C1N[C@H](Cc2ccccc2)C(=O)N2CCN(C(=O)NCc3ccccc3)C[C@H]12

Reference: PubChem BioAssay AID1259375 (The Scripps Research Institute Molecular Screening Center, 2018)
